Earlier results in patent US20190231742A1, “NUTRITIONAL AGENTS USED TO PREVENT AND TREAT HYPERSENSITIVITY AND OTHER ALLERGIC-TYPE DISORDERS” (priority 2017, published 2019).

Columns and labels:
[1] = oral administration of ~20 g; raised from ≤0.2 mM
[2] = taken by mouth; FIG. 3
[3] = Alzheimer's disease patient; increasing quantities on successive days

Row | Compound | plasma D-βOHB level [1] [mM] | rise in the blood level of D-βOHB and AcAc with increasing oral amount (mg/kg body weight) [2] | time of peak blood D-βOHB level after ingestion [3] | water solubility
1 | CCCCCCCC(=O)OCC(COC(=O)CCCCCCC)OC(=O)CCCCCCC [tricaprylin] | 0.5 to 0.7 | – | – | –
2 | CC(O)CCOC(=O)CC(C)O [KME, (R)-3-hydroybutyl (R)-3-hydroxybutyrate] | – | increases proportionately | about 1 hour | somewhat water soluble
